Series [1] is described as follows: Traction reflex test (myorelaxant action). The format is in vivo. The settings on record: mouse, traction reflex versus mes, ip; mice, i.p.; Table 8; read-out: TI Tract. (ED50 traction reflex impairment / ED50 MES). The protocol: (§1) NMR female mice (18-28 g) housed 5 per cage were used for the maximal electroshock (MES) and motor impairment tests. […] All compounds were dissolved in 0.9% saline.
(§2) The MES test was performed together with tests for myorelaxant action (traction reflex) and motor coordination (rotarod). For the traction reflex test mice were placed with their forepaws on a horizontal rod and were required to place all 4 paws on the wire within 10 seconds. To test ataxia (motor coordination) mice were placed on rotarod (5 rpm) and were required to remain on the rod for 1 minute. […] These tests were followed by MES (100 Hz, 0.5 second shock duration, 50 mA shock intensity, 0.9 ms impulse duration, Ugo Basile) applied through corneal electrodes. The presence of tonic convulsions was scored (tonic extension of hind paws with minimum angle to the body of 90°). The aim was to obtain ED50 s for all parameters scored (anticonvulsive activity and motor side effects) with use of the Litchfield Wilcoxon test for quantal dose responses. Division of the ED50 for side effects (ataxia or myorelaxation) by the ED50 for antagonism of electroshock convulsions was used as a therapeutic index (TI). […]

The nature of series [2]: Rotarod test (motor coordination, ataxia). The format is in vivo. The settings on record: mouse, ip, mice, i.p., Table 8, read-out: TI Rot. (ED50 rotarod failure / ED50 MES). The protocol: All compounds were dissolved in 0.9% saline.
(§3) The MES test was performed together with tests for myorelaxant action (traction reflex) and motor coordination (rotarod). For the traction reflex test mice were placed with their forepaws on a horizontal rod and were required to place all 4 paws on the wire within 10 seconds. To test ataxia (motor coordination) mice were placed on rotarod (5 rpm) and were required to remain on the rod for 1 minute. […] These tests were followed by MES (100 Hz, 0.5 second shock duration, 50 mA shock intensity, 0.9 ms impulse duration, Ugo Basile) applied through corneal electrodes. The presence of tonic convulsions was scored (tonic extension of hind paws with minimum angle to the body of 90°). The aim was to obtain ED50 s for all parameters scored (anticonvulsive activity and motor side effects) with use of the Litchfield Wilcoxon test for quantal dose responses. Division of the ED50 for side effects (ataxia or myorelaxation) by the ED50 for antagonism of electroshock convulsions was used as a therapeutic index (TI).
(§4) Pearson product moment correlation analysis (Sigma Stat, Jandel Scientific) was used to compare in vitro potencies and in vivo anticonvulsant activity.
Background: Falling from the rotarod earlier than controls is read as motor impairment.

The target of another series is NMDA receptor. Nature of the series: [3H]-(+)-MK-801 receptor binding to rat cortical membranes. Conditions: read-out: [3H]MK-801 IC50, [3H]-(+)-MK-801 5 nM, Table 7. The protocol: Male Sprague-Dawley rats (200-250 g) were decapitated and their brains were removed rapidly. The cortex was dissected and homogenized in 20 volumes of ice-cold 0.32 M sucrose using a glass-Teflon homogenizer. The homogenate was centrifuged at 1000×g for 10 minutes. The pellet was discarded and the supernatant centrifuged at 20,000×g for 20 minutes. The resulting pellet was re-suspended in 20 volumes of distilled water and centrifuged for 20 minutes at 8000×g. Then the supernatant and the buffy coat were centrifuged three times (48,000×g for 20 minutes) in the presence of 50 mM Tris-HCl, pH 8.0. All centrifugation steps were carried out at 4° C. After resuspension in 5 volumes of 50 mM Tris-HCl, pH 8.0 the membrane suspension was frozen rapidly at -80° C. On the day of assay the membranes were thawed and washed four times by resuspension in 50 mM Tris-HCl, pH 8.0 and centrifugation at 48,000×g for 20 minutes. The final pellet was suspended in assay buffer. The amount of protein in the final membrane preparation was determined according to the method of Lowry with some modifications. The final protein concentration used for our studies was between 250-500 μg/ml.
Membranes were re-suspended and incubated in 50 mM Tris-HCl, pH 8.0. […] Incubations were terminated using a Millipore filter system. The samples were rinsed three times with 2.5 ml ice cold assay buffer over glass fiber filters obtained from Schleicher & Schuell under a constant vacuum. Filtration was performed as rapidly as possible. Following separation and rinse, the filters were placed into scintillation liquid (5 ml; Ultima Gold) and radioactivity retained on the filters was determined with a conventional liquid scintillation counter (Hewlett Packard, Liquid Scintillation Analyser).
IC50 s in patch clamp, excitotoxicity, and binding studies were calculated according to the four parameter alogistic equation using the Grafit computer program (Erithacus Software, England). Ki value for binding studies were then determined according to Cheng and Prusoff. Binding values presented are means ±SEM of 3-5 determinations (each performed in duplicate).

For series [3] the following is noted: i.p.; Table 8.
In series [4] the test system is MES-induced convulsions in mice. The series is described as follows: Anticonvulsive activity: maximal electroshock (MES) test. Type of series: in vivo. Conditions: for ED50: Mus musculus, ip, 0.5 h; for MES ED50: i.p., Table 8, 30 min. As to the method: as §1, §3, §4
In the next series the test system is traction reflex in mice. The series is described as follows: Traction reflex test (myorelaxant action). The format is in vivo. The settings on record: i.p., Table 8. The protocol: as §1, §2

A value given as a limit tells only on which side of the number the result lay.

Turning to `C[C@@H]1CC(C)(C)C[C@@](C)(N)C1` (relative stereo) [Mrz 2/607], the selectivity ratio in series [1] was 1.3; in series [2] (rotarod versus mes), 1.7.
Regarding `CCC[C@@]1(C)C[C@H](C)C[C@@](C)(N)C1` (relative stereo) [Mrz 2/618], the selectivity ratio in series [1] was 1.2; in series [2] (rotarod versus mes), 1.1.
Consider `CCC[C@]1(C)C[C@@H](C)C[C@@](C)(N)C1` (relative stereo) [Mrz 2/619], for which the selectivity ratio in series [1] and in series [2] (rotarod versus mes) was 1 each time.
Turning to `CC[C@@]1(C)C[C@H](C)C[C@@](C)(N)C1` (relative stereo) [Mrz 2/622], the selectivity ratio was 1.1 in series [1] and 1.7 in series [2] (rotarod versus mes). Moreover, the half-inhibitory concentration (IC50) – broadly, the point on the concentration scale where inhibition reaches its midpoint – on NMDA receptor was 150 µM.
With `CC[C@]1(C)C[C@@H](C)C[C@@](C)(N)C1` (relative stereo) [Mrz 2/624], the selectivity ratio was determined as 0.9 in series [1] and 1 in series [2] (rotarod versus mes).
For the compound `C[C@@H]1CCC[C@@](C)(N)C1` (relative stereo) [Mrz 2/625], the selectivity ratio in series [1] turned out to be 0.5; in series [2] (rotarod versus mes), 1.2.
With `CCC[C@@H]1CCC[C@@](C)(N)C1` (relative stereo) [Mrz 2/627], the selectivity ratio in series [1] was 0.8; in series [2] (rotarod versus mes), 1.
For `CCC[C@H]1CCC[C@@](C)(N)C1` (relative stereo) [Mrz 2/628], in that order: 0.8 and 1.6.
Regarding `CC[C@@H]1CCC[C@@](C)(N)C1` (relative stereo) [Mrz 2/629], the selectivity ratio in series [1] and in series [2] (rotarod versus mes) was 0.9 each time.
For `CC[C@H]1CCC[C@@](C)(N)C1` (relative stereo) [Mrz 2/630], the IC50 at NMDA receptor amounted to 443 µM. In addition, in series [3], the “Min Lethality” value is given as more than 30 mg/kg.
On to `C[C@H]1CCC[C@@](C)(N)C1` (relative stereo) [Mrz 2/631], for which the “Min Lethality” value in series [3] was more than 30 mg/kg.
For the compound `CC[C@H]1CC(C)(C)C[C@@](C)(N)C1` (relative stereo) [Mrz 2/632], the selectivity ratio in series [1] was found to be 2.7; in series [2] (rotarod versus mes), 3.4.
On to `CC[C@@H]1CC(C)(C)C[C@@](C)(N)C1` (relative stereo) [Mrz 2/633], for which the values for the selectivity ratio in series [1] and in series [2] (rotarod versus mes) were 2.4 and 3, respectively.
For the compound `CCC[C@H]1CC(C)(C)C[C@@](C)(N)C1` (relative stereo) [Mrz 2/634], the ED50 (usually the midpoint of the dose-response relation) was more than 30 mg/kg in series [4] (Table 8) and more than 30 mg/kg in series [4] (i.p. 30 min before, Table 7). In series [3], the “Min Lethality” value was more than 30 mg/kg.
As for `CCC[C@@H]1CC(C)(C)C[C@@](C)(N)C1` (relative stereo) [Mrz 2/635], the selectivity ratio is 1.3 in series [1] and 1.4 in series [2] (rotarod versus mes).
`C[C@H]1CC(C)(C)C[C@@](C)(N)C1` (relative stereo) [Mrz 2/643]: the “TI Tract. (ED50 traction reflex impairment / ED50 MES)” value in the series with traction reflex in mice came out at 1.3. In series [4] (i.p. 30 min before, Table 7), this compound yielded an ED50 of 16.6 mg/kg.
On to `C[C@@H]1C[C@H](C)C[C@@](C)(N)C1` [MRZ 2/680, 1-amino-1(trans),3(trans),5-trimethylcyclohexane], for which, in the series with traction reflex in mice, the “TI Tract. (ED50 traction reflex impairment / ED50 MES)” value turned out to be 0.7.
Turning to `C[C@@H]1C[C@H](C)C[C@](C)(N)C1` [MRZ 2/681, 1-amino-1(cis),3(cis),5-trimethylcyclohexane], the “TI Tract. (ED50 traction reflex impairment / ED50 MES)” value with traction reflex in mice is listed as 2.1. The selectivity ratio in series [2] (rotarod versus mes) turned out to be 5.3.
For `CC[C@H]1CC(C)(C)C[C@](C)(N)C1` [MRZ 2/682, 1-amino-(1R,5S)trans-3-ethyl-1,5,5-trimethylcyclohexane], the “TI Tract. (ED50 traction reflex impairment / ED50 MES)” value with traction reflex in mice amounted to 2.7.
As to `CC[C@H]1CC(C)(C)C[C@@](C)(N)C1` [MRZ 2/683, 1-amino-(1S,5S)cis-3-ethyl-1,5,5-trimethylcyclohexane], the “TI Tract. (ED50 traction reflex impairment / ED50 MES)” value in the series with traction reflex in mice turned out to be 2.7.
Take `CC1(C)CC(N)CC(C)(C)C1` [Mrz 2/557]: the selectivity ratio in series [1] was found to be 1; in series [2] (rotarod versus mes) it was 1.4.
On to `CC1(C)CC(CN)CC(C)(C)C1.Cl` [Mrz 2/580, 3,3,5,5-tetramethylcyclohexylmethylamine hydrochloride], for which the selectivity ratio in series [1] was determined as 1.6; in series [2] (rotarod versus mes) it was 1.3. Besides, the “Min Lethality” value in series [3] was found to be 50 mg/kg.
For the compound `CCCC1(N)CC(C)(C)CC(C)(C)C1` [Mrz 2/601, 1-amino-1-propyl-3,3,5,5-tetramethylcyclohexane], the selectivity ratio in series [1] and in series [2] (in vivo) was 1.5 throughout. For the same compound, the “MES ED50” value in series [4] worked out at 15.6 mg/kg i.p. Also, the “Min Lethality” value in series [3] is reported as 50 mg/kg.
For the compound `CCCC1(C)CC(C)(C)CC(C)(N)C1` (stereo not shown) [Mrz 2/614], the “TI Tract. (ED50 traction reflex impairment / ED50 MES)” value in the series with traction reflex in mice worked out at 1.9.
For `CCC1(C)CC(C)(C)CC(C)(N)C1` (stereo not shown) [Mrz 2/615, 1-amino-1,3,5,5-tetramethyl-3-ethylcyclohexane], the selectivity ratio in series [1] amounted to 2.5; in series [2] (rotarod versus mes) it was 3.2. The “Min Lethality” value in series [3] is given as 50 mg/kg.
With `CCCC1(C)CCCC(C)(N)C1` (stereo not shown) [Mrz 2/617], the “TI Tract. (ED50 traction reflex impairment / ED50 MES)” value with traction reflex in mice was determined as 1.1.
Take `CCC1(C)CCCC(C)(N)C1` (stereo not shown) [Mrz 2/620]: the “TI Tract. (ED50 traction reflex impairment / ED50 MES)” value with traction reflex in mice turned out to be 1.6. Further, in series [2] (rotarod versus mes), the selectivity ratio stood at 1.1.
For the compound `CCC1(CC)CC(C)(C)CC(C)(N)C1` (stereo not shown) [Mrz 2/623, 1-amino-1,5,5-trimethyl-3,3-diethylcyclohexane], the selectivity ratio stood at 1.4 in series [1] and 1.8 in series [2] (rotarod versus mes). In series [3], the “Min Lethality” value was more than 30 mg/kg.
`CCCC1(CCC)CC(C)(C)CC(C)(N)C1` (stereo not shown) [Mrz 2/626]: the “TI Tract. (ED50 traction reflex impairment / ED50 MES)” value in the series with traction reflex in mice stood at 1.1.
Consider `CCNC1(C)CC(C)(C)CC(C)(C)C1` [Mrz 2/639, N-ethyl-1-amino-1,3,3,5,5-pentamethylcyclohexane], for which the selectivity ratio in series [1] came to 2.6; in series [2] (rotarod versus mes), 4.4. In series [3], the “Min Lethality” value was 30 mg/kg.
For `CNC1(C)CC(C)(C)CC(C)(C)C1.Cl` [Mrz 2/640, N,1,3,3,5,5-hexamethylcyclohexanamine hydrochloride], the selectivity ratio in series [1] was found to be 2.3; in series [2] (rotarod versus mes), 3.3. For the same compound, the “Min Lethality” value in series [3] is 108 mg/kg.
In the case of `CC1(N)CCCCC1` [Mrz 2/641], the “Min Lethality” value in series [3] is recorded as more than 50 mg/kg.
On to `CN(C)C1(C)CC(C)(C)CC(C)(C)C1` [Mrz 2/642], for which the selectivity ratio in series [1] turned out to be 4.1; in series [2] (in vivo), 5.3. Moreover, the “MES ED50” value in series [4] amounted to 8.04 mg/kg i.p.
Consider `CC1(C)CC(CCN)CC(C)(C)C1` [Mrz 2/644], for which the selectivity ratio worked out at 0.5 in series [1] and 0.6 in series [2] (rotarod versus mes).
Turning to `CC(C)(N)CC1CC(C)(C)CC(C)(C)C1` [Mrz 2/645], the “TI Tract. (ED50 traction reflex impairment / ED50 MES)” value in the series on traction reflex in mice stood at 0.6.
As for `CC1(C)CC(C)(C)CC(C)(CCN)C1` [Mrz 2/662], the results for the selectivity ratio in series [1] and in series [2] (rotarod versus mes) were 1 and 1.2, respectively.

(Values after patent US6071966A, “1-amino-alkylcyclohexane NMDA receptor antagonists” (Merz + Co. GmbH & Co., priority 1998, dated 2000).)
